{
  "source": "patent US20100278915A1",
  "about": "“COMPOSITIONS COMPRISING AN ANTIHISTAMINE, A[…] DE[…] EXTENDED RELEASE FORMULATIONS” (Atley Pharmaceuticals, Inc., priority 2009, published 2010)",
  "origin": "cited, not measured here",
  "key": {"[1]": {"conditions": "within 24 hours of dosing"}, "[2]": {"conditions": "after a single oral dose"}, "[3]": {"conditions": "in vivo"}},
  "note": "Structures can show the parent of a compound that is named as a salt.",
  "data": [
    {"compound": "CN[C@@H](C)[C@@H](O)c1ccccc1", "note": "[Pseudoephedrine, pseudoephedrine]", "values": [
      {"measurement": "dose excreted unchanged in urine", "setting": "[1]", "value": "up to 90%"}
    ]},
    {"compound": "COc1ccc2c3c1O[C@H]1C(=O)CC[C@H]4[C@@H](C2)N(C)CC[C@]314", "note": "[Hydrocodone, hydrocodone]", "values": [
      {"measurement": "share of total excretion in the first 24 hours", "setting": "[2]", "value": "About 70%"}
    ]},
    {"compound": "CN(C)CCC(c1ccc(Cl)cc1)c1ccccn1", "note": "(stereo not shown) [Chlorpheniramine, Chlorpheniramine maleate]", "values": [
      {"measurement": "monodesmethyl and didesmethyl compounds excreted in the urine", "setting": "[3]", "value": "up to 26%"},
      {"measurement": "renal elimination, share of total excretion", "setting": "[3]", "value": "approximately 50%"}
    ]}
  ]
}
